Test results as given in ChEMBL document CHEMBL4513161, “CO-ADD screening of MMV (CH) - Pandemic Response Box” (2021).
Values after ≈ are worked out from the molar mass of the structure shown. Counter-ions that a name gives are not always drawn.

Assays:
Pseudomonas aeruginosa [1] = test: Antibacterial activity against Pseudomonas aeruginosa PAO397 [PAO1 d(mexAB-oprM) d(mexCD-oprJ) d(mexEF-oprN) d(mexJKL) d(mexXY) d(opmH)] (CO-ADD:GN_211); MIC in CAMBH media using NBS plates, by OD(600); type: functional; conditions: ASSAY_TEST Inhibition of Bacterial Growth, detection method Absorption (OD600), MEDIA CAMHB, plate type 384well, CORNING #3640, time 18 hr
Acinetobacter baumannii = test: microbe, parasite or virus in culture; conditions: ATCC 19606, 18 h, ASSAY_TEST Inhibition of Bacterial Growth, detection method Absorption (OD600), MEDIA CAMHB, plate type 384well, NBS, CORNING #3640
Description: Antibacterial activity against Acinetobacter baumannii ATCC 19606 (CO-ADD:GN_034); MIC in CAMBH media using NBS plates, by OD600

Staphylococcus aureus = test: microbe, parasite or virus in culture; conditions: ATCC 43300, 18 h, ASSAY_TEST Inhibition of Bacterial Growth, detection method Absorption (OD600), MEDIA CAMHB, plate type 384well, NBS, CORNING #3640
Description: Antibacterial activity against Staphylococcus aureus MRSA ATCC 43300 (CO-ADD:GP_020); MIC in CAMBH media, using NBS plates, by OD(600)

Escherichia coli = test: microbe, parasite or virus in culture; conditions: ATCC 25922, 18 h, ASSAY_TEST Inhibition of Bacterial Growth, detection method Absorption (OD600), MEDIA CAMHB, plate type 384well, NBS, CORNING #3640
Description: Antibacterial activity against Escherichia coli ATCC 25922 (CO-ADD:GN_001); MIC in CAMBH media using NBS plates, by OD(600)

Klebsiella pneumoniae = test: microbe, parasite or virus in culture; conditions: ATCC 700603, 18 h, ASSAY_TEST Inhibition of Bacterial Growth, detection method Absorption (OD600), MEDIA CAMHB, plate type 384well, NBS, CORNING #3640
Description: Antibacterial activity against Klebsiella pneumoniae MDR ATCC 70063 (CO-ADD:GN_003); MIC in CAMBH media using NBS plates, by OD(600)

Pseudomonas aeruginosa [2] = test: microbe, parasite or virus in culture; conditions: ATCC 27853, 18 h, ASSAY_TEST Inhibition of Bacterial Growth, detection method Absorption (OD600), MEDIA CAMHB, plate type 384well, NBS, CORNING #3640
Description: Antibacterial activity against Pseudomonas aeruginosa ATCC 27853 (CO-ADD:GN_042); MIC in CAMBH media using NBS plates, by OD(600)

HEK293 = test: cells; type: functional, Homo sapiens, ATCC CRL1573; conditions: Homo sapiens, ATCC CRL1573, HEK293; ASSAY_TEST Inhibition of Cell Viability; detection method Resazurin; Fluorescence (ex560/em590); MEDIA DMEM with 10% FBS; plate type 384well; TC; CORNING #3712; time 18 hr; read-out: CC50
Candida albicans = test: microbe, parasite or virus in culture; conditions: ATCC 90028, ASSAY_TEST Inhibition of Fungal Growth, detection method Absorption (OD530), plate type 384well, NBS, CORNING #3640
Description: Antifungal activity against Candida albicans ATCC 90028 (CO-ADD:FG_001); MIC in YNB media using NBS plates, by OD630

Description for Cryptococcus neoformans: Antifungal activity against Cryptococcus neoformans H99 ATCC 208821 (CO-ADD:FG_002); MIC in YNB media using NBS plates, by Resazurin OD(600-570)

Row | Compound | MIC (Pseudomonas aeruginosa [1]) | MIC (Acinetobacter baumannii) | MIC (Cryptococcus neoformans) | MIC (Staphylococcus aureus) | MIC (Escherichia coli) | MIC (Klebsiella pneumoniae) | MIC (Pseudomonas aeruginosa [2]) | CC50 (HEK293) | MIC (Candida albicans)
1 | COc1cccc(N2CCN(C3=Nc4c(F)cccc4[C@H](CC(=O)O)N3c3cc(C(F)(F)F)ccc3OC)CC2)c1 [LETERMOVIR] | > 20 µM | > 20 µM | > 20 µM | > 20 µM | > 20 µM | > 20 µM | > 20 µM | > 20 µM | > 20 µM
2 | CC(C)Oc1ccc(-n2cnc3cc(/C=C\c4ccc(C(C)(C)O)cc4)ccc32)cc1 [LHF-535] | > 20 µM | > 20 µM | > 20 µM | > 20 µM | > 20 µM | > 20 µM | > 20 µM | 10.6 µM | > 20 µM
3 | CCn1cc(C(=O)O)c(=O)c2cc(F)c(N3CCNC(C)C3)c(F)c21 (stereo not drawn) [LOMEFLOXACIN HYDROCHLORIDE] | 0.312 µM | 20 µM | > 20 µM | 10 µM | 0.625 µM | 20 µM | > 20 µM | > 20 µM | > 20 µM
4 | O=c1nc(N2CCN(CC3CCCCC3)CC2)sc2c([N+](=O)[O-])cc(C(F)(F)F)cc12 [MACOZINONE] | > 20 µM | > 20 µM | > 20 µM | > 20 µM | > 20 µM | > 20 µM | > 20 µM | > 20 µM | > 20 µM
5 | NCc1ccc(S(N)(=O)=O)cc1 [MAFENIDE] | > 20 µM | > 20 µM | > 20 µM | > 20 µM | > 20 µM | > 20 µM | > 20 µM | > 20 µM | > 20 µM
6 | CC(C)Nc1nc2cc(Cl)c(Cl)cc2n1[C@H]1O[C@@H](CO)[C@H](O)[C@@H]1O [MARIBAVIR] | > 20 µM | > 20 µM | > 20 µM | > 20 µM | > 20 µM | > 20 µM | > 20 µM | > 20 µM | > 20 µM
7 | C[N+]1(C)CCCC(OC(=O)C(O)(c2ccccc2)c2ccccc2)C1 (stereo not drawn) [MEPENZOLATE BROMIDE] | > 20 µM | > 20 µM | > 20 µM | > 20 µM | > 20 µM | > 20 µM | > 20 µM | > 20 µM | > 20 µM
8 | Cc1cc(C)n(O)c(=O)c1 [METIPIROX] | > 20 µM | > 20 µM | 20 µM (≈ 2.78 µg/mL) | > 20 µM | > 20 µM | > 20 µM | > 20 µM | > 20 µM | > 20 µM
9 | CSc1ccc2c(c1)C(N1CCN(C)CC1)Cc1ccccc1S2 (stereo not drawn) [METITEPINE] | > 20 µM | > 20 µM | > 20 µM | > 20 µM | > 20 µM | > 20 µM | > 20 µM | > 20 µM | > 20 µM
10 | Cn1cc(NC(=O)c2cc(NC(=O)c3ccc(/C=C/c4cnc5ccccc5c4)cc3)cn2C)cc1C(=O)NCCN1CCOCC1 [MGB-BP-3] | > 20 µM | > 20 µM | > 20 µM | 1.25 µM (≈ 0.79 µg/mL) | > 20 µM | > 20 µM | > 20 µM | 1.71 µM | > 20 µM
11 | CC#C[C@]1(O)CC[C@H]2[C@@H]3CCC4=CC(=O)CCC4=C3[C@@H](c3ccc(N(C)C)cc3)C[C@@]21C [MIFEPRISTONE] | > 20 µM | > 20 µM | > 20 µM | > 20 µM | > 20 µM | > 20 µM | > 20 µM | > 20 µM | > 20 µM
12 | Cc1ncc([N+](=O)[O-])n1CC(O)CN1CCOCC1 (stereo not drawn) [MORINIDAZOLE] | > 20 µM | > 20 µM | > 20 µM | > 20 µM | > 20 µM | > 20 µM | > 20 µM | > 20 µM | > 20 µM
13 | c1cnc(NCc2ccc(CNc3ncccn3)cc2)nc1 [MSX-122] | > 20 µM | > 20 µM | > 20 µM | > 20 µM | > 20 µM | > 20 µM | > 20 µM | > 20 µM | > 20 µM
14 | CC1CCc2c(N3CCC(O)CC3)c(F)cc3c(=O)c(C(=O)O)cn1c23 (stereo not drawn) [NADIFLOXACIN] | ≤ 0.156 µM | 20 µM (≈ 7.21 µg/mL) | > 20 µM | ≤ 0.156 µM | 0.625 µM (≈ 0.225 µg/mL) | 20 µM (≈ 7.21 µg/mL) | 1.25 µM (≈ 0.45 µg/mL) | > 20 µM | > 20 µM
15 | [N-]=[N+]=N[C@H]1C[C@H](n2ccc(=O)[nH]c2=O)O[C@@H]1CO [NAVURIDINE] | > 20 µM | > 20 µM | > 20 µM | > 20 µM | > 20 µM | > 20 µM | > 20 µM | > 20 µM | > 20 µM
16 | FC(F)(F)Oc1ccc(Nc2ccc3cccc(Cl)c3n2)cc1 [OBEFAZIMOD] | > 20 µM | > 20 µM | > 20 µM | > 20 µM | > 20 µM | > 20 µM | > 20 µM | > 20 µM | > 20 µM
17 | Cc1cc(-c2ccccc2)c(C(=O)C(=O)Nc2ccc(N3CCN(c4ncc(F)cn4)CC3)cc2)n1C [OLOROFIM] | > 20 µM | > 20 µM | > 20 µM | > 20 µM | > 20 µM | > 20 µM | > 20 µM | > 20 µM | > 20 µM
18 | O[C@@](Cn1cnnn1)(c1ccc(F)cc1F)C(F)(F)c1ccc(-c2ccc(OCC(F)(F)F)cc2)cn1 [OTESECONAZOLE] | > 20 µM | > 20 µM | 0.625 µM (≈ 0.33 µg/mL) | > 20 µM | > 20 µM | > 20 µM | > 20 µM | > 20 µM | ≤ 0.156 µM
19 | COC(=O)Nc1nc2cc([S+]([O-])c3ccccc3)ccc2[nH]1 (stereo not drawn) [OXFENDAZOLE] | > 20 µM | > 20 µM | > 20 µM | > 20 µM | > 20 µM | > 20 µM | > 20 µM | > 20 µM | > 20 µM
20 | CC(C)Oc1ccc(-c2nc(-c3cccc4c3CC[C@@H]4NCCO)no2)cc1C#N [OZANIMOD] | > 20 µM | > 20 µM | > 20 µM | > 20 µM | > 20 µM | > 20 µM | > 20 µM | > 20 µM | > 20 µM
21 | CONC(=N)c1ccc(-c2ccc(-c3ccc(C(=N)NOC)cc3)o2)cc1 [PAFURAMIDINE] | > 20 µM | > 20 µM | > 20 µM | > 20 µM | > 20 µM | > 20 µM | > 20 µM | > 20 µM | > 20 µM
22 | COc1ccc(COc2cc3oc(=O)c4cc(C(C)O)ccc4c3cc2OC)cc1 (stereo not drawn) [PALOMID-529] | > 20 µM | > 20 µM | > 20 µM | > 20 µM | > 20 µM | > 20 µM | > 20 µM | > 20 µM | > 20 µM
23 | Cc1[nH]c2ccccc2c1CCNCc1ccc(/C=C/C(=O)NO)cc1 [PANOBINOSTAT] | > 20 µM | > 20 µM | > 20 µM | > 20 µM | > 20 µM | > 20 µM | > 20 µM | > 20 µM | > 20 µM
24 | Nc1nc2c(Cc3cccnc3)c[nH]c2c(=O)[nH]1 [PELDESINE] | > 20 µM | > 20 µM | > 20 µM | > 20 µM | > 20 µM | > 20 µM | > 20 µM | > 20 µM | > 20 µM
25 | CC[C@@H]1C(=O)OC[C@@H]1Cc1cncn1C [PILOCARPINE HYDROCHLORIDE] | > 20 µM | > 20 µM | > 20 µM | > 20 µM | > 20 µM | > 20 µM | > 20 µM | > 20 µM | > 20 µM
26 | O=C(O)[C@H]1C2CCC(CC2)[C@@H]1Nc1nc(-c2c[nH]c3ncc(F)cc23)ncc1F [PIMODIVIR] | > 20 µM | > 20 µM | > 20 µM | > 20 µM | > 20 µM | > 20 µM | > 20 µM | > 20 µM | > 20 µM
27 | CN(C)CC(=O)Nc1ccc2[nH]c(=O)c3ccccc3c2c1 [PJ34] | > 20 µM | > 20 µM | > 20 µM | > 20 µM | > 20 µM | > 20 µM | > 20 µM | > 20 µM | > 20 µM
